# From patent US4231928A, “Antibacterial agents” (priority 1979, dated 1980)
# Tests used:
# [1] = test system: Pseudomonas aeruginosa; details: prior art penicillins; cited from earlier work
# [2] = test system: D. pneumoniae; assay: Tube dilution (Nutrient broth), D. pneumoniae; format: cell-based; details: Streptococcus pneumoniae, Dp-4 D. pneumoniae A9585, Table 3
# Description: (§1) The MIC's of BB-P598 against various organisms were also determined by the tube dilution method (Nutrient broth), and the results, compared with sulbenicillin, are shown in Table 3.
# [3] = test system: P. aeruginosa A9843; assay: MIC of the infecting strain with the in vivo test, P. aeruginosa A9843; format: cell-based; details: Pseudomonas aeruginosa, Table 7
# [4] = test system: P. aeruginosa A9843; assay: Effect of inoculum size on MIC, serial tube dilution (Nutrient Broth); format: cell-based
# Description: (§2) The effect of inoculum size of the MIC and MBC (Minimum Bacteriacidal Concentration) of BB-P598 against P. aeruginosa A9843 also was determined. The MIC's were determined by the serial tube dilution method in Nutrient Broth using four levels of inoculum size (5.3×10^3, 5.3×10^4, 5.3×10^5 and 5.3×10^6 cells/ml), along with sulbenicillin as a reference standard.
# [5] = test system: S. marcescens; assay: Tube dilution (Nutrient broth), S. marcescens; format: cell-based; details: Serratia marcescens
# Description: as §1
# [6] = test system: E. coli Juhl; assay: MIC of the infecting strain with the in vivo test, E. coli Juhl; format: cell-based; details: Escherichia coli, Table 7
# [7] = test system: S. aureus Smith; assay: In vivo activity in experimental infection in mice, S. aureus Smith; details: single; for Survival/Tested: 100×LD50 challenge
# Description: (§3) BB-P598 was evaluated in vivo in experimental infections in mice. The pathogenic bacteria employed were P. aeruginosa A9843, E. coli Juhl and S. aureus Smith. Mice were challenged intraperitoneally with a 100×LD50 dose of the pathogens in a 5% suspension of hog gastric mucin. The penicillin was administered subcutaneously as a single treatment, just after the bacterial challenge.
# (§4) PD50 = Protective Dose50 , i.e. the dose required to give
# (§5) protection to 50% of the infected mice.
# [8] = test system: K. pneumoniae; assay: Tube dilution (Nutrient broth), K. pneumoniae; format: cell-based; details: Klebsiella pneumoniae
# [9] = test system: P. aeruginosa; assay: Tube dilution (Nutrient broth), P. aeruginosa; format: cell-based; details: Pseudomonas aeruginosa
# Description: as §1
# [10] = test system: P. morganii; assay: Tube dilution (Nutrient broth), P. morganii; format: cell-based; details: Morganella morganii
# Description: as §1
# [11] = test system: P. aeruginosa A9843; assay: In vivo activity in experimental infection in mice, P. aeruginosa A9843; details: single; for Survival/Tested: 100×LD50 challenge
# Description: as §3, §4, §5
# [12] = test system: S. pyogenes; assay: Tube dilution (Nutrient broth), S. pyogenes; format: cell-based; details: Streptococcus pyogenes, Sp-3 S. pyogenes A9604, Table 3
# Description: as §1
# [13] = test system: P. aeruginosa A9843; assay: Effect of inoculum size on MBC and MBC/MIC ratio; format: cell-based; details: Table 5; for MBC: Pseudomonas aeruginosa, 99% killed
# Description: as §2
# Subsequent to the above MIC determinations, aliquots from the non-turbid tubes were added to Nutrient Agar plates to determine the MBC value. The MBC was assigned to the lowest concentration which killed 99% of the original cell population.
# [14] = test system: P. mirabilis; assay: Tube dilution (Nutrient broth), P. mirabilis; format: cell-based; details: Proteus mirabilis, Pm-2 P. mirabilis A9900, Table 3
# Description: as §1
# [15] = test system: E. coli Juhl; assay: In vivo activity in experimental infection in mice, E. coli Juhl; details: single; for Survival/Tested: 100×LD50 challenge
# Description: as §3, §4, §5
# [16] = test system: E. cloacae; assay: Tube dilution (Nutrient broth), E. cloacae; format: cell-based; details: Enterobacter cloacae, El-1 E. cloacae A9656, Table 3
# Description: as §1
# [17] = test system: S. enteritidis; assay: Tube dilution (Nutrient broth), S. enteritidis; format: cell-based; details: Salmonella enterica, Se-1 S. enteritidis A9531, Table 3
# Description: as §1
# [18] = test system: E. coli; assay: Tube dilution (Nutrient broth), E. coli; format: cell-based; details: Escherichia coli
# Description: as §1
# [19] = test system: S. aureus; assay: Tube dilution (Nutrient broth), S. aureus; format: cell-based; details: Staphylococcus aureus
# Description: as §1
# [20] = test system: S. aureus Smith; assay: MIC of the infecting strain with the in vivo test, S. aureus Smith; format: cell-based; details: Staphylococcus aureus, Table 7, read-out: MC
compound,measurement,setting,value
"CC1(C)S[C@@H]2[C@H](NC(=O)C(C(=O)O)c3ccccc3)C(=O)N2[C@H]1C(=O)O (stereo partly shown) [Carbenicillin, reference compound]",potency against Pseudomonas aeruginosa (in words),[1],only a relatively low potency
"CC1(C)S[C@@H]2[C@H](NC(=O)C(c3ccccc3)S(=O)(=O)O)C(=O)N2[C@H]1C(=O)O (stereo partly shown) [Sulbenicillin, reference compound]",MIC,[2],0.08 µg/mL
same,MIC,[3],25 µg/mL
same,MIC,"[4]; Pseudomonas aeruginosa, A9843, inoculum 5.3 × 10^4 cell/ml, Nutrient Broth, Table 4, read-out: MIC (a)",50 µg/mL
same,MIC,"[4]; Pseudomonas aeruginosa, A9843, inoculum 5.3 × 10^4 cell/ml, Table 5, read-out: MIC",50 µg/mL
same,MIC,"[4]; Pseudomonas aeruginosa, A9843, inoculum 5.3 × 10^6 cell/ml, Nutrient Broth, Table 4, read-out: MIC (c)",> 400 µg/mL
same,MIC,"[4]; inoculum 5.3 × 10^3 cell/ml, Table 5",25 µg/mL
same,MIC ratio b/a,"[4]; inoculum 5.3 × 10^5 / 5.3 × 10^4 cell/ml, Table 4",4
same,MIC ratio c/a,"[4]; inoculum 5.3 × 10^6 / 5.3 × 10^4 cell/ml, Table 4",> 8
same,MIC,[5],25 µg/mL
same,MIC,[6],25 µg/mL
same,Survival/Tested,[7]; 0.4 mg/kg sc,0/5
same,Survival/Tested,[7]; 1.6 mg/kg sc,0/5
same,Survival/Tested,[7]; 6.3 mg/kg sc,5/5
same,Survival/Tested,[7]; 25 mg/kg sc,5/5
same,ED50,"[7]; Staphylococcus aureus, sc, dose required to protect 50% of the infected mice, read-out: PD50",3.1 mg/kg
same,MIC,"[8]; Kp-3 K. pneumoniae A9977, Table 3",6.3 µg/mL
same,MIC,"[8]; Kp-4 K. pneumoniae A15130, Table 3",> 100 µg/mL
same,MIC,"[9]; Pa-13 P. aeruginosa A9843, Table 3",25 µg/mL
same,MIC,"[9]; Pa-19 P. aeruginosa A20229, Table 3",> 100 µg/mL
same,MIC,"[9]; Pa-57 P. aeruginosa A20546, Table 3",25 µg/mL
same,MIC,[10],12.5 µg/mL
same,Survival/Tested,[11]; 1.6 mg/kg sc,0/5
same,Survival/Tested,[11]; 6.3 mg/kg sc,0/5
same,Survival/Tested,[11]; 25 mg/kg sc,0/5
same,Survival/Tested,[11]; 100 mg/kg sc,2/5
same,Survival/Tested,[11]; 400 mg/kg sc,4/5
same,ED50,"[11]; Pseudomonas aeruginosa, A9843, sc, dose required to protect 50% of the infected mice, read-out: PD50",140 mg/kg
same,MIC,[12],0.31 µg/mL
same,MBC,"[13]; A9843, inoculum 5.3 × 10^3 cell/ml",100 µg/mL
same,MBC,"[13]; A9843, inoculum 5.3 × 10^4 cell/ml",200 µg/mL
same,MBC/MIC,[13]; inoculum 5.3 × 10^3 cell/ml,4
same,MBC/MIC,[13]; inoculum 5.3 × 10^4 cell/ml,4
same,MIC,[14],0.8 µg/mL
same,Survival/Tested,[15]; 1.6 mg/kg sc,0/5
same,Survival/Tested,[15]; 6.3 mg/kg sc,1/5
same,Survival/Tested,[15]; 25 mg/kg sc,5/5
same,Survival/Tested,[15]; 100 mg/kg sc,5/5
same,ED50,"[15]; Escherichia coli, sc, dose required to protect 50% of the infected mice, read-out: PD50",9.5 mg/kg
same,MIC,[16],50 µg/mL
same,MIC,[17],1.6 µg/mL
same,MIC,"[18]; Ec-1 E. coli NIHJ, Table 3",6.3 µg/mL
same,MIC,"[18]; Ec-58 E. coli A9675, Table 3",100 µg/mL
same,potency against Pseudomonas aeruginosa (in words),[1],only a relatively low potency
same,MIC,"[19]; Sa-2 S. aureus Smith +50% serum, Table 3",3.1 µg/mL
same,MIC,"[19]; Sa-2 S. aureus Smith A9537, Table 3",3.1 µg/mL
same,MIC,"[19]; Sa-11 S. aureus BX-1633 A9606, Table 3",12.5 µg/mL
same,MIC,"[19]; Sa-44 S. aureus A15097, Table 3",25 µg/mL
same,MIC,[20],6.3 µg/mL
